From PMC8968063, “Key features of inhibitor binding to the human mitochondrial pyruvate carrier hetero-dimer” (Molecular Metabolism, 2022)
Several values for one entry are separate records, joined by “and”; a condition that tells them apart may be missing. Equal values may be shown once.

Assays:
human MPC1L/MPC2 complex [1] = target: T1, human MPC1L/MPC2 complex (Homo sapiens, UniProt O95563+P0DKB6); test: CPM thermostability shift assay, purified MPC1L/MPC2; format: binding; conditions: inhibitor 100 μM; for ΔTm at 100 µM: read-out: ∆Tm, CPM assay (thermal shift compared to no-ligand control); for Tm, CPM assay: unliganded 51.3 ± 0.2, mean ± s.d., 3 biological repeats
T1 construct: eight-histidine tag (C, cleaved yes); TEV protease cleavage site (part stays on MPC2 after digestion) (C, cleaved yes); made in house; host or cells: Saccharomyces cerevisiae SHY15 (mpc triple deletion strain), purified from mitochondria
T1 sequence (P0DKB6 2-136): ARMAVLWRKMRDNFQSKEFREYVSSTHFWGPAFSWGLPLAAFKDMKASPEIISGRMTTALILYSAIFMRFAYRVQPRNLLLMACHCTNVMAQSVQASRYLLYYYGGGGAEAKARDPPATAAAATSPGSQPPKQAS
T1 sequence (O95563 2-127): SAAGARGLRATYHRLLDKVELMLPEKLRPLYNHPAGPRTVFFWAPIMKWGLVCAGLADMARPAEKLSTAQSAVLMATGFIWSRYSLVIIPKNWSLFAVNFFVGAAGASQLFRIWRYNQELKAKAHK
Description: The assessment of ligand binding was performed via shifts in protein thermostability upon binding using thermal denaturation on a rotary quantitative PCR (qPCR) instrument (Qiagen Rotor-Gene Q 2plex HRM, Venlo, Netherlands), as previously described. In this method, cysteine residues, buried within the protein structure, become solvent-exposed during denaturation in a temperature ramp and then react with 7-diethylamino-3-(4-maleimidophenyl)-4-methylcoumarin (CPM) to form fluorescent-adducts. Briefly, a CPM working solution was prepared by diluting the CPM stock (5 mg/mL in dimethyl sulfoxide) 50-fold into assay buffer (20 mM Tris–HCl, pH 7.4, 150 mM NaCl, 0.1% (w/v) LMNG, 0.1 mg/mL TOCL) and incubated for 10 min at room temperature. In each analysis, performed in duplicates or triplicates, 3 μg of purified MPC was diluted into 45 μL of assay buffer containing the desired concentration of the inhibitor then incubated for 10 min on ice. Next, 5 μL of the CPM working solution were added. Samples were incubated on ice for an additional 10 min then subjected to a temperature ramp of 5.6 °C/min. The fluorescence increase was monitored with the HRM channel of the instrument (excitation at 440–480 nm, emission at 505–515 nm). Unfolding profiles were analysed with the Rotor-Gene Q software 2.3, and the peaks of their derivatives were used to determine the apparent melting temperature.

human MPC1L/MPC2 complex [2] = target: T1, human MPC1L/MPC2 complex; test: nano-DSF thermostability shift assay, purified MPC1L/MPC2; format: binding; conditions: inhibitor 100 μM; for Tm, nano-DSF: unliganded 51.9 ± 0.1, mean ± s.d., 2 biological repeats
Description: Ligand binding was also assessed using dye-free nano differential scanning fluorimetry (nano-DSF) to monitor fluorescence changes due to altered environments of tryptophan and tyrosine residues during unfolding. Protein samples in buffer containing 20 mM Tris–HCl pH 7.4, 150 mM NaCl, 0.1% (w/v) LMNG, 0.1 mg/mL TOCL, in the presence or absence of the indicated concentrations of small molecule inhibitors, were loaded into capillary tubes, and a temperature ramp of 5 °C/min was applied. The intrinsic fluorescence was measured using the NanoTemper Prometheus NT.48 (NanoTemper, München, Germany).

[3] = target: T2, recombinant human MPC1L/MPC2 (Homo sapiens, UniProt O95563+P0DKB6); test: Electrospray mass spectrometry of MPC1L/MPC2 after reaction with inhibitors or sulfhydryl modifiers; conditions: for Covalent modification of MPC protomers (molecular mass change): folded MPC1L/MPC2 incubated with compound, ESI-MS
T2 construct: MPC1L (2–136); MPC2 (2–137); eight-histidine tag (C, cleaved yes); TEV protease cleavage site (part stays on MPC2 after digestion) (C, cleaved yes); made in house; host or cells: Saccharomyces cerevisiae SHY15 (mpc triple deletion strain), purified from mitochondria
T2 sequence (P0DKB6 2-136 limits assumed): T1 sequence (P0DKB6 2-136)
T2 sequence (O95563 2-127 limits assumed): T1 sequence (O95563 2-127)
Description: Different MPC inhibitors (Table1) or sulfhydryl reagents were first incubated with MPC1L/MPC2 in a folded state, then the protein molecular masses were measured by electrospray mass spectrometry. The MPC subunits (10 μg) were resolved by reverse-phase HPLC on a PLRP-S column (1.0 mm i.d. X 75 mm; VARIAN) using a gradient of 2-propanol in a solvent system compatible with the recovery of membrane proteins (Carroll et al., 2009). The eluate (50 μL/min) was introduced into a QTRAP4000 (SCIEX) mass spectrometer operating in positive ion single MS mode. The instrument was scanned from 700 m/z to 2300 m/z after calibration with ions from a mixture of 1.0 μM of myoglobin and 1.5 μM trypsinogen. Molecular masses were obtained by reconstruction of the spectra of multiply charged ions using PeakView (SCIEX).

mammalian MPCs = conditions: cited from earlier work
[4] = target: T3, human MPC1L/MPC2 hetero-dimer (Homo sapiens, UniProt O95563+P0DKB6); test: Inhibition of [14C]-pyruvate homo-exchange in MPC1L/MPC2 proteoliposomes; format: biochemical
T3 construct: eight-histidine tag (C, cleaved yes); TEV protease cleavage site (part stays on MPC2 after digestion) (C, cleaved yes); made in house; host or cells: Saccharomyces cerevisiae SHY15 (mpc triple deletion strain), purified from mitochondria
T3 sequence (P0DKB6 2-136): T1 sequence (P0DKB6 2-136)
T3 sequence (O95563 2-127): T1 sequence (O95563 2-127)
Description: Egg L-α-phosphatidylcholine 99% (w/v) (Avanti Polar Lipids, AL, USA) and TOCL were mixed in a 20:1 (w/w) ratio, dried under a stream of nitrogen and washed once with methanol before being dried again. Lipids were hydrated in 20 mM Tris–HCl, pH 8.0, 50 mM NaCl to a concentration of 12 mg/mL. Unlabeled pyruvate was added as a freshly made concentrated stock at a final concentration of 5 mM for internalisation. Lipids were solubilised with 1.2% (v/v) pentaethylene glycol monodecyl ether (Sigma) and freshly purified protein was added at a lipid-to-protein ratio of 250:1 (w/w). Samples were incubated on ice for 5 min, then liposomes were formed by the step-wise removal of pentaethylene glycol monodecyl ether by five additions at 20 min intervals of 60 mg Bio-Beads SM-2 (Bio-Rad, Watford, UK) with gentle mixing at 4 °C. A final addition of 480 mg Bio-Beads was incubated with the samples overnight. Proteoliposomes were first separated from the Bio-Beads by passage through empty spin columns (Bio-Rad, Watford, UK) and subsequently pelleted at 120,000×g for 60 min. The proteoliposomes were resuspended with a thin needle in 150 μL of their supernatant after the rest of the supernatant was removed.
The time course of pyruvate homo-exchange was measured at room temperature. The transport was initiated by diluting proteoliposomes 200-fold into external buffer, 20 mM MES, pH 6.4, 50 mM NaCl, containing 50 μM [^14C]-pyruvate (500,000 dpm, Perkin Elmer, MA, USA). The reaction (0–30 s) was terminated by rapid dilution into 8 volumes of ice-cold internal buffer (20 mM Tris–HCl, pH 8.0, 50 mM NaCl), followed by rapid filtration through cellulose nitrate 0.45 μm filters (Millipore, Gillingham, UK) and washing with an additional 8 volumes of buffer. The filters were dissolved in Ultima Gold scintillation liquid (Perkin Elmer, MA, USA) and the radioactivity was counted with a Perkin Elmer Tri-Carb 2800 RT liquid scintillation counter. […] The data analysis was performed with non-linear regression fittings using GraphPad Prism 7.0d ([Inhibitor] vs response, variable slope). The specific uptake rates were calculated based on the amount of protein used in reconstitutions, as estimated from bicinchoninic acid assay. The biological repeats represent independent proteoliposome preparations using protein from independent purifications.

[5] = number of covalent adducts from mass increase
[6] = MPC1L/MPC2 after reaction with compound

Compound: CCc1ccc(CCOc2ccc(CC3SC(=O)NC3=O)cc2)nc1 (stereo not shown) [Pioglitazone, pioglitazone]
- ΔTm at 100 µM (human MPC1L/MPC2 complex [1]): 5.1 ± 0.9 °C
- Tm, CPM assay (human MPC1L/MPC2 complex [1]): 56.4 ± 0.7 °C
- ∆Tm, nano-DSF (human MPC1L/MPC2 complex [2]): 1.1 ± 0.3 °C
- Tm, nano-DSF (human MPC1L/MPC2 complex [2]): 53.0 ± 0.2 °C

Compound: CCN1C(=O)C=CC1=O [NEM]
- Covalent modification of MPC protomers (molecular mass change) [3]: modified covalently
- Modifications, MPC1L (2–136) [3, 5]: 2 x NEM and 1 x NEM
- Modifications, MPC1L (5–136) [3, 5]: unmodified and 1 x NEM and 2 x NEM and 3 x NEM
- Modifications, MPC2 (2–137) [3, 5]: 2 x NEM and 1 x NEM and 3 x NEM

Compound: N#C/C(=C/c1ccc(-c2ccc(Cl)cc2)o1)C(=O)O [Compound 5]
- ΔTm at 100 µM (human MPC1L/MPC2 complex [1]): 9 ± 1.6 °C
- Tm, CPM assay (human MPC1L/MPC2 complex [1]): 60.3 ± 1.4 °C

Compound: O=C(O)C(F)=Cc1ccccc1 [α-fluorocinnamate]
- Potency relative to α-cyano-cinnamate (times less potent) (mammalian MPCs): 1,000 times

Compound: CN(CCOc1ccc(CC2SC(=O)NC2=O)cc1)c1ccccn1 (stereo not shown) [Rosiglitazone, rosiglitazone]
- ΔTm at 100 µM (human MPC1L/MPC2 complex [1]): 5.3 ± 0.5 °C
- Tm, CPM assay (human MPC1L/MPC2 complex [1]): 56.6 ± 0.3 °C

Compound: N#C/C(=C/c1ccc(-c2cccc(C(F)(F)F)c2)o1)C(=O)O [Compound 6]
- ΔTm at 100 µM (human MPC1L/MPC2 complex [1]): 8.5 ± 1.6 °C
- Tm, CPM assay (human MPC1L/MPC2 complex [1]): 59.8 ± 1.4 °C

Compound: N#C/C(=C/c1ccc(-c2ccccc2[N+](=O)[O-])o1)C(=O)O [Compound 7]
- IC50 ([4]; MPC1L/MPC2 proteoliposomes, 50 μM [14C]-pyruvate homo-exchange, mean ± s.d., read-out: IC50 of pyruvate transport inhibition): 5.4 ± 1.1 nM
- ΔTm at 100 µM (human MPC1L/MPC2 complex [1]): 16.5 ± 1.4 °C
- Tm, CPM assay (human MPC1L/MPC2 complex [1]): 67.8 ± 1.2 °C
- Mass difference (observed vs calculated), MPC1L (2–136) [3, 6]: 0.5 Da
- Mass difference (observed vs calculated), MPC1L (5–136) [3, 6]: 0.9 Da
- Mass difference (observed vs calculated), MPC2 (2–137) [3, 6]: 1.6 Da
- Covalent modification of MPC protomers (molecular mass change) [3]: no molecular mass differences

Compound: COc1ccc(/C=C(/C#N)C(=O)O)cc1 [Compound 1]
- ΔTm at 100 µM (human MPC1L/MPC2 complex [1]): 9.1 ± 1.2 °C
- Tm, CPM assay (human MPC1L/MPC2 complex [1]): 60.4 ± 1.0 °C

Compound: CCCC(CCC)C(=O)O [Valproic acid, valproic acid]
- Effect on pyruvate transport ([4]; 1 mM final concentration): minimal
- ∆Tm, CPM assay (thermal shift compared to no-ligand control) (human MPC1L/MPC2 complex [1]): no effect at all
- ΔTm at 100 µM (human MPC1L/MPC2 complex [1]): 0 °C
- Tm, CPM assay (human MPC1L/MPC2 complex [1]): 51.3 ± 0.3 °C
- ∆Tm, nano-DSF (human MPC1L/MPC2 complex [2]): -0.1 ± 0.3 °C
- Tm, nano-DSF (human MPC1L/MPC2 complex [2]): 51.8 ± 0.2 °C

Compound: CN1C(=O)NC(=O)/C(=C/c2ccc(-c3ccccc3[N+](=O)[O-])o2)C1=O [Compound 12]
- ΔTm at 100 µM (human MPC1L/MPC2 complex [1]): 9.1 ± 0.9 °C
- Tm, CPM assay (human MPC1L/MPC2 complex [1]): 60.4 ± 0.7 °C

Compound: N#C/C(=C/c1ccc(-c2ccccc2Cl)o1)C(=O)O [Compound 8]
- ΔTm at 100 µM (human MPC1L/MPC2 complex [1]): 11 ± 1.9 °C
- Tm, CPM assay (human MPC1L/MPC2 complex [1]): 62.3 ± 1.7 °C
